This is an account of results in patent US20260109690A1, “HDAC6 INHIBITORS AND METHOD OF THEIR USE” (Baerenkraft Therapeutics, LLC., priority 2024, published 2026).

One data set addresses T1, HDAC10 (Homo sapiens, UniProt Q969S8).
T1 sequence (Q969S8 1-669): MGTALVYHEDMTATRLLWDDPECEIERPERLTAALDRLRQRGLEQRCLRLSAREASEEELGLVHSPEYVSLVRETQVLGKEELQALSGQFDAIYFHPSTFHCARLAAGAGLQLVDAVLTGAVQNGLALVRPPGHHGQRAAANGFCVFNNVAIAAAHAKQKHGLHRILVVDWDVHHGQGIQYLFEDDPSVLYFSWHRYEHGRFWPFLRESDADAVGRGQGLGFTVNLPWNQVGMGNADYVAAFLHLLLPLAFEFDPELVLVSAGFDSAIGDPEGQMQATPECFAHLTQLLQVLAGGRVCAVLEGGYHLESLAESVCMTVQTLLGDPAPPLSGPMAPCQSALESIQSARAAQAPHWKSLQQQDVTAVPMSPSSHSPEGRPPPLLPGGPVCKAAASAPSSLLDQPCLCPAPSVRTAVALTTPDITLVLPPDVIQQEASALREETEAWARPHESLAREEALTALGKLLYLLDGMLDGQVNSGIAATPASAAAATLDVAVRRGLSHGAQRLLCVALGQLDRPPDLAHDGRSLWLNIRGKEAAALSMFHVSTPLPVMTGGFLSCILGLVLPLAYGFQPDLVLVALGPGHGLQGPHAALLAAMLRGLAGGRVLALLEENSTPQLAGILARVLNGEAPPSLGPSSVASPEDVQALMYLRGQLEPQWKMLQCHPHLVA
The data set is described as follows: HDAC selectivity panel: HDAC10. The format is biochemical.

For data set [1], the system named is B6SJL.SOD1-G93A transgenic mouse model of amyotrophic lateral sclerosis. Put plainly: ALS mouse model: rotarod test. The format is in vivo, mice. The method, then: The Rotarod test was used for motor coordination assessment in mice. Animals were accustomed to the rotarod at 10 rpm for 300 s followed by training for 2 days at accelerated rpm (4-40 for 300 s) with 15 minutes inter trial interval. On the day of the test, animals were subjected to rotarod test at 4-40 rpm for 300 s with 15 minutes inter trial interval. During the training and test, the latency to fall off the rod was recorded. A total of 3 trials were recorded, data was averaged and analyzed.
Note: Behavioral tests were performed once in two weeks, i.e. at week 10, 12, 14 and 16.
A general note: Falling from the rotarod earlier than controls is read as motor impairment.

For another data set, the target named is T2, HDAC7 (Homo sapiens, UniProt Q8WUI4).
T2 sequence (Q8WUI4 1-952): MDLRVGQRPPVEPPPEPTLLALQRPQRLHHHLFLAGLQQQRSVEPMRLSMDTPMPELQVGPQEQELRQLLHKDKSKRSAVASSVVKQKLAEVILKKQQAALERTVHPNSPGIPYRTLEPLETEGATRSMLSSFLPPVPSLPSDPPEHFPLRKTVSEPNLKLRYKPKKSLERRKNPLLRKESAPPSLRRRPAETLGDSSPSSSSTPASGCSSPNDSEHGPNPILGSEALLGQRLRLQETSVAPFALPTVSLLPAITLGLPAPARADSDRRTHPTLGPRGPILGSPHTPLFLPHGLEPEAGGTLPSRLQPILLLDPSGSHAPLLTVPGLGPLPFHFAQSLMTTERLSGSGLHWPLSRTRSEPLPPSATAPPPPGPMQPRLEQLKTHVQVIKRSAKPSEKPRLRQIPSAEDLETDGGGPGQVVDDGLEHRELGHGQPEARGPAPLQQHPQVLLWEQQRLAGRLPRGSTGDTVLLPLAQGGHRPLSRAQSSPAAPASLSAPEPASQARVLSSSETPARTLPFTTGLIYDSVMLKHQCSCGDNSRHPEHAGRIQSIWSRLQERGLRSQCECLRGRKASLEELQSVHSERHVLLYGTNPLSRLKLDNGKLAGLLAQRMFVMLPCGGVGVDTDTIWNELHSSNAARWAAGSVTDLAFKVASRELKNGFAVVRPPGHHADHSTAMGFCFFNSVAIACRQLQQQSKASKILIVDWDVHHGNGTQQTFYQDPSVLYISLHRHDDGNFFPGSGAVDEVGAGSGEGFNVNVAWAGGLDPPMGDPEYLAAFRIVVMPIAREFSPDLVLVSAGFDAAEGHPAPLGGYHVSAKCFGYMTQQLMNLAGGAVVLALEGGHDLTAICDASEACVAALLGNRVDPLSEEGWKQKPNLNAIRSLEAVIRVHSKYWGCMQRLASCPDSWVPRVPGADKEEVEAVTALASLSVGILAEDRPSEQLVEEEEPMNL
The data set is described as follows: HDAC selectivity panel: HDAC7. The format is biochemical.

The test system of another data set is Tg2576 AD Disease Mice. The data set is described as follows: Tg2576 study: elevated plus maze. The format is in vivo. The settings on record: for Elevated Plus Maze time spent in Closed arms / Elevated Plus Maze time spent in Open arms: G3 Tg2576 mice. The method, then:
Mice were weighed and randomized into groups. All the test formulations were freshly administered to respective animals of each group as per body weight. Basal behavior of the animals was recorded and analyzed in open field, Y-Maze, and EPM. Post basal behavior, animals were treated with compound I-16 for the duration of 3 months (i.e., from 6 months until 9 months). During the treatment duration, animals were subjected to different behavioral tests such as OFT, Y-maze, and EPM at 7, 8 and 9 months. At the end of experiments (i.e., at 9 months) animals were subjected to Morris water maze test.
Animals were subjected to elevated plus maze to evaluate anxiety-like behavior. Animals were placed in the centre of the arena with two open and two closed arms facing towards closed arms and allowed to explore the arena for a duration of 5 minutes. Animal behavior was video recorded using overhead video recording camera. Total time spent in the closed and open arms were quantified using automated animal tracking software Ethovision XT.

Data set [2] in a line: Mice PK studies of compound I-16. The format is in vivo.
The mark [3] stands for this setting: 50 mg/kg then 80 mg/kg from day 36 p.o., 8th months.
The mark [4] stands for this setting: 50 mg/kg then 80 mg/kg from day 36 p.o., 9th months.
Setting [5] is: 6th months (Basal, before treatment).

The IC50 is the concentration that inhibits the measured activity by half. For `CC1CN(Cc2ccc(Nc3nccc(-c4ccc(C(=O)NO)cc4)n3)cc2F)CCO1` (racemic) [Compound I-8, 4-(2-((3-fluoro-4-((2-methylmorpholino)methyl)phenyl)amino)pyrimidin-4-yl)-N-hydroxybenzamide], the values for the IC50 at HDAC10 and at HDAC7 were 0.00915 µM and 12.4 µM, respectively. Moreover, the “Rotarod Test latency to fall” value is 137.59 ± 15.62 s in data set [1] (G3 15 mg/kg p.o. QD, Week 10); 119.19 ± 18.07 s in data set [1] (G3 15 mg/kg p.o. QD, Week 12); 88.63 ± 10.57 s in data set [1] (G3 15 mg/kg p.o. QD, Week 14); 34.04 ± 12.74 s in data set [1] (G3 15 mg/kg p.o. QD, Week 16); 140 ± 13.47 s in data set [1] (G4 30 mg/kg (50 mg/kg from day 34) p.o. QD, Week 10); 120.58 ± 13.17 s in data set [1] (G4 30 mg/kg (50 mg/kg from day 34) p.o. QD, Week 12). The “Rotarod Test latency to fall” value in data set [1] (G4 30 mg/kg (50 mg/kg from day 34) p.o. QD, Week 14) was 86 ± 16.17 s; in data set [1] (G4 30 mg/kg (50 mg/kg from day 34) p.o. QD, Week 16) it was 39.79 ± 20.43 s.

Turning to `C[C@@H]1CN(Cc2ccc(Nc3nccc(-c4ccc(C(=O)NO)cc4)n3)cc2F)CCO1` [Compound I-16, (R)-4-(2-((3-fluoro-4-((2-methylmorpholino)methyl)phenyl)amino)pyrimidin-4-yl)-N-hydroxybenzamide], the “Elevated Plus Maze: time spent in open and closed arms compared to G2 (Tg2576 + vehicle)” value in the data set with Tg2576 AD Disease Mice (G3 Tg2576 AD disease mice, 50 mg/kg) was “did not show any significant difference”. Moreover, the “Elevated Plus Maze time spent in Closed arms” value in the data set on Tg2576 AD Disease Mice (50 mg/kg p.o., 7th months) stood at 165.48 ± 28.89; in the data set with Tg2576 AD Disease Mice (setting [3]), 245.27 ± 12.41; with Tg2576 AD Disease Mice (setting [4]), 241.46 ± 11.16; with Tg2576 AD Disease Mice (setting [5]), 110.86 ± 16.69. Also, the “Elevated Plus Maze time spent in Open arms” value amounted to 73.82 ± 27.58 in the data set on Tg2576 AD Disease Mice (50 mg/kg p.o., 7th months); 54.73 ± 12.41 with Tg2576 AD Disease Mice (setting [3]); 58.55 ± 11.16 with Tg2576 AD Disease Mice (setting [4]); 82.94 ± 14.23 in the data set with Tg2576 AD Disease Mice (setting [5]). The “oral and brain uptake” value in data set [2] is “promising oral, and brain up take”.
